This is an account of results in patent US6617118B2, “Monoclonal antibody for analysis and clearance of polyethylene glycol and polyethylene glycol-modified molecules” (priority 1999, dated 2003).

For one data set, the system named is LS174T cells. Kind of data set: Drug sensitivity of LS174T cells ([3H]-leucine incorporation). To be noted: BHAMG plus 1 μg/well βG, 24 h.
Data set [1] can be described thus: Toxicity of clearance and BHAMG prodrug administration. Type of data set: in vivo, BALB/c mice. The settings on record: AGP3 and 15 mg/kg BHAMG, no βG-sPEG. As to the method:
Toxicity of Clearance: The numbers of WBC, RBC, and PLT in groups of 6 BALB/c mice were measured as described (Chen et al., 1997) 1 day before i.v. injection of 50 μg of βG-PEG or PBS. […] On day 8, the numbers of WBC, RBC, and PLT in […] samples were determined. On days 3 and 10, the spleen, liver and kidney were removed from one mouse in each group and fixed in 10% formalin. Ethanol dehydrated samples were embedded in paraffin and cut into 3 μm sections. Sections were then dewaxed with xylene, stained with hematoxylin/eosin, and dehydrated before observation under a light microscope. The weight of mice was followed for 18 days.
One concern of employing IgM to clear proteins is that the immune complexes could be deposited in organs and cause tissue damage. In addition, deposition of βG-PEG on the surface of cells could result in prodrug activation and tissue toxicity. […] Mice were injected with PBS (A-C) or βG-sPEG (D-F) on day 1. […] Tissue sections of liver (A, D), kidney (B, E), and spleen (C, F) recovered 10 days later were stained with hematoxylin and eosin. […] Similarly, no tissue damage was observed 3 days after prodrug administration (results not shown).
Groups of 4 mice were i.v. injected at time zero with PBS (control) or βG-sPEG. […] Six hours later, all mice were i.v. injected with BHAMG. […]

The test system of a further data set is LS174T tumor xenografts. In words: Therapy of LS174T tumor xenografts. On the procedure:
Therapy of LS174T Tumor Xenografts: Groups of 9 BALB/c nu/nu mice were s.c. injected on the right flank with 5×10^6 LS174T cells on day 1. […] 48 and 50 h later mice were i.v. injected with 2 sequential doses of 300 and 200 μg AGP3. […] Therapy was repeated starting on days 16, 26, and 41. All mice received 2-4 rounds of therapy. Tumor volumes (length×width×height×0.5) were measured twice a week and mice weight was followed as an estimate of treatment toxicity. […] Groups of 8 BALB/c nu/nu mice bearing larger 200-250 mm^3 tumors were also treated as above with 2 rounds of therapy starting on days 11 and 23.
Therapy was repeated starting on days 16, 26 and 41. […] Bars indicate the standard error of the mean. […] Soluble IgM immune complexes are primarily removed from the circulation and catabolized by the mononuclear phagocyte system in the liver, spleen and lungs by receptor-mediated binding of high mannose oligosaccharides exposed upon conformational changes in IgM induced by antigen binding (Day et al., 1980).

Procedure for LS174T cells: Drug sensitivity of LS174T cells: LS174T cells were plated overnight in 96 well microtiter plates at 40,000 cells per well. […] Cells were subsequently washed once with sterile PBS, incubated until hour 48 in fresh leucine-free medium and then pulsed for 12 h with [^3H]-leucine (1 μCi/well) in fresh medium and harvested with a Filter-mate (Packard). Incorporated radioactivity was determined on a Top-Count scintillation counter (Packard). Results are expressed as percentage inhibition of [^3H]-leucine incorporation compared with untreated cells (control) by the following formula: [formula]
The cellular protein synthesis rate of drug-treated cells is compared to untreated control cells. Bars indicate the standard error of triplicate determinations.

Take `O=C(O)[C@H]1O[C@@H](Oc2ccc(N(CCCl)CCCl)cc2)[C@H](O)[C@@H](O)[C@@H]1O` [BHAMG]: the “cytotoxic effect with simultaneous addition of βG” value in the data set with LS174T cells was “cytotoxic effect equal to pHAM alone”. In addition, the “weight of mice, control group” value in data set [1] is on record as “only a small transient decrease”. Further, the values for the Weight loss % in the data set on LS174T tumor xenografts (Round of therapy 1), in the data set with LS174T tumor xenografts (Round of therapy 2) and in the data set on LS174T tumor xenografts (Round of therapy 3) were 1.7%, 4.0% and 1.7%, respectively.
